Test results as given in patent US20240383955A1, “MODIFIED ANTIMICROBIAL PEPTIDES” (priority 2021, published 2024).
In brackets after ≈: the same amount, converted by molar mass. Bridge positions count the residues as written; N and C are the ends. Ends that are not written are not given here. Peptide text beside a SMILES is read from it.

How the values were obtained:
[1] = test system: B. cinerea; test: Semi-in planta drop inoculation assay on detached leaves of N. benthamiana, gray mold symptoms; format: in vivo, B. cinerea on N. benthamiana; settings: 48 h; for effectiveness in reducing gray mold disease symptoms: peptide tested at 1.5 μM, 3 μM and 6 μM
[2] = test system: Botrytis cinerea; settings: Table 18

Row | Compound | gray mold symptoms [1] | gray mold symptoms ([1]; peptide at 3 μM and 6 μM) | reducing the symptoms of gray mold, comparison of peptides ([1]; peptide at 1.5 μM and 3 μM) | gray mold symptoms ([1]; peptide at 6 μM) | effectiveness in reducing gray mold disease symptoms [1] | MIC (SFM + 2 mM CaCl2) [2] | MIC (SFM + 100 mM KCl) [2] | MIC (SFM + 100 mM NaCl) [2] | MIC SFM [2] | reducing the symptoms of gray mold, comparison of peptides ([1]; peptide at 1.5 μM)
1 | CC[C@H](C)[C@H](NC(=O)[C@H](CCCNC(=N)N)NC(=O)[C@H](CS)NC(=O)[C@H](CCCNC(=N)N)NC(=O)CNC(=O)[C@@H](N)CO)C(=O)N[C@@H](CC(C)C)C(=O)N[C@@H](Cc1ccccc1)C(=O)N[C@@H](CCCNC(=N)N)C(=O)N[C@@H](CS)C(=O)N[C@@H](Cc1ccccc1)C(=O)N[C@@H](CS)C(=O)N[C@H](C(=O)N[C@@H](CCCCN)C(=O)N[C@@H](CC(N)=O)C(=O)N[C@@H](CS)C(N)=O)[C@@H](C)O [GMA1C_V1] (H-SGRCRILFRCFCTKNC-NH2; N-terminus assumed) | failed to reduce disease symptoms |  |  |  |  |  |  |  |  | 
2 | GACLKNRHSKHYGWFWYYRHCY-NH2 (disulfide 3-21 (inferred)) [GMAOe1C_V2] |  | completely abrogated gray mold symptoms |  |  |  |  |  |  |  | 
3 | CC[C@H](C)[C@@H]1NC(=O)[C@H](CCCNC(=N)N)NC(=O)[C@H]([C@@H](C)O)NC(=O)[C@H](Cc2c[nH]c3ccccc23)NC(=O)[C@H](Cc2ccc(O)cc2)NC(=O)[C@H](Cc2c[nH]c3ccccc23)NC(=O)[C@H](CCCNC(=N)N)NC(=O)[C@H](CCCNC(=N)N)NC(=O)[C@H](CCCNC(=N)N)NC(=O)[C@H](Cc2ccccc2)NC(=O)CNC(=O)[C@H](CCCCN)NC(=O)[C@@H](NC(=O)[C@H](CCCNC(=N)N)NC(=O)CNC(=O)CN)CSSC[C@@H](C(N)=O)NC1=O [GMA4C_V10] (H-GGRCKGFRRRWYWTRIC-NH2; disulfide 4-17; N-terminus assumed) |  |  | more effective in reducing the symptoms of gray mold than GMA4C_V9 | completely abrogates gray mold symptoms | effective in reducing gray mold disease symptoms | 3 µM | 3 to 6 µM | 3 µM | 3 µM (≈ 6.6 µg/mL) | 
4 | CC(C)C[C@@H]1NC(=O)[C@@H](NC(=O)[C@H](C)NC(=O)CN)CSSC[C@@H](C(=O)N[C@@H](Cc2ccc(O)cc2)C(N)=O)NC(=O)[C@H](Cc2c[nH]cn2)NC(=O)[C@H](CCCNC(=N)N)NC(=O)[C@H](Cc2ccc(O)cc2)NC(=O)[C@H](Cc2ccc(O)cc2)NC(=O)[C@H](Cc2c[nH]c3ccccc23)NC(=O)[C@H](Cc2ccccc2)NC(=O)[C@H](Cc2c[nH]c3ccccc23)NC(=O)CNC(=O)[C@H](Cc2ccc(O)cc2)NC(=O)[C@H](Cc2c[nH]cn2)NC(=O)[C@H](CCCCN)NC(=O)[C@H](CO)NC(=O)[C@H](Cc2c[nH]cn2)NC(=O)[C@H](CCCNC(=N)N)NC(=O)[C@H](CC(N)=O)NC(=O)[C@H](CCCCN)NC1=O [GMAOe1C_V3] (H-GACLKNRHSKHYGWFWYYRHCY-NH2; disulfide 3-21) |  | completely abrogated gray mold symptoms |  |  |  | 3 to 6 µM | 6 to 12 µM | 2 to 3 µM | 1.5 µM (≈ 4.31 µg/mL) | more effective than GMAOe1C_V4 or GMAOe1C_WT
5 | C[C@H](NC(=O)CN)C(=O)N[C@H]1CSSC[C@@H](C(N)=O)NC(=O)[C@H](CCCCN)NC(=O)[C@H](CCCCN)NC(=O)[C@H](Cc2ccc(O)cc2)NC(=O)[C@H](Cc2c[nH]c3ccccc23)NC(=O)[C@H](Cc2ccccc2)NC(=O)[C@H](Cc2c[nH]c3ccccc23)NC(=O)[C@H](C)NC(=O)[C@H](Cc2ccccc2)NC(=O)CNC(=O)[C@H](Cc2ccccc2)NC(=O)CNC(=O)[C@H](CCC(N)=O)NC(=O)[C@H](CCCNC(=N)N)NC(=O)[C@H](Cc2c[nH]cn2)NC1=O [GMA5CA_V3] (H-GACHRQGFGFAWFWYKKC-NH2; disulfide 3-18) |  |  |  |  |  | >12 µM | >12 µM | >12 µM | 3 µM (≈ 6.57 µg/mL) | 
6 | CC[C@H](C)[C@@H]1NC(=O)[C@H](CCCNC(=N)N)NC(=O)[C@@H](NC(=O)[C@H](CCCNC(=N)N)NC(=O)CNC(=O)[C@@H](N)CO)CSSC[C@@H](C(N)=O)NC(=O)[C@H](CC(N)=O)NC(=O)[C@H](CCCCN)NC(=O)[C@H]([C@@H](C)O)NC(=O)[C@H](Cc2ccccc2)NC(=O)[C@H](Cc2ccc(O)cc2)NC(=O)[C@H](Cc2c[nH]c3ccccc23)NC(=O)[C@H](CCCNC(=N)N)NC(=O)[C@H](Cc2ccccc2)NC(=O)[C@H](CC(C)C)NC1=O [GMA1C_V3] (H-SGRCRILFRWYFTKNC-NH2; disulfide 4-16) |  |  |  |  |  | 6 µM | >12 µM | 3 µM | 1.5 µM (≈ 3.07 µg/mL) | 
7 | CC(C)C[C@@H]1NC(=O)[C@@H](NC(=O)[C@H](C)NC(=O)CN)CSSC[C@@H](C(=O)N[C@@H](Cc2ccc(O)cc2)C(N)=O)NC(=O)[C@H](Cc2c[nH]cn2)NC(=O)[C@H](CCCNC(=N)N)NC(=O)[C@H](Cc2ccc(O)cc2)NC(=O)[C@H](Cc2ccc(O)cc2)NC(=O)[C@H](Cc2c[nH]c3ccccc23)NC(=O)[C@H](Cc2ccccc2)NC(=O)[C@H](Cc2ccccc2)NC(=O)CNC(=O)[C@H](Cc2ccc(O)cc2)NC(=O)[C@H](Cc2c[nH]cn2)NC(=O)[C@H](CCCCN)NC(=O)[C@H](CO)NC(=O)[C@H](Cc2c[nH]cn2)NC(=O)[C@H](CCCNC(=N)N)NC(=O)[C@H](CC(N)=O)NC(=O)[C@H](CCCCN)NC1=O [GMAOe1C_V4] (H-GACLKNRHSKHYGFFWYYRHCY-NH2; disulfide 3-21) |  | completely abrogated gray mold symptoms |  |  |  | 6 to 12 µM | 6 to 12 µM | 6 µM | 1.5 µM (≈ 4.25 µg/mL) | 
8 | C[C@H](NC(=O)CN)C(=O)N[C@H]1CSSC[C@@H](C(N)=O)NC(=O)[C@H](CCCCN)NC(=O)[C@H](CCCCN)NC(=O)[C@H](Cc2ccc(O)cc2)NC(=O)[C@H](Cc2ccccc2)NC(=O)[C@H](Cc2ccccc2)NC(=O)[C@H](Cc2ccccc2)NC(=O)[C@H](C)NC(=O)[C@H](Cc2ccccc2)NC(=O)CNC(=O)[C@H](Cc2ccccc2)NC(=O)CNC(=O)[C@H](CCC(N)=O)NC(=O)[C@H](CCCNC(=N)N)NC(=O)[C@H](Cc2c[nH]cn2)NC1=O [GMA5CA_V4] (H-GACHRQGFGFAFFFYKKC-NH2; disulfide 3-18) |  |  |  |  |  | >12 µM | >12 µM | >12 µM | 3 µM (≈ 6.33 µg/mL) | 
9 | CC(C)C[C@H](NC(=O)[C@H](CS)NC(=O)[C@H](C)NC(=O)CN)C(=O)N[C@@H](CCCCN)C(=O)N[C@@H](CC(N)=O)C(=O)N[C@@H](CCCNC(=N)N)C(=O)N[C@@H](Cc1c[nH]cn1)C(=O)N[C@@H](CO)C(=O)N[C@@H](CCCCN)C(=O)N[C@@H](Cc1c[nH]cn1)C(=O)N[C@@H](Cc1ccc(O)cc1)C(=O)NCC(=O)N[C@@H](CS)C(=O)N[C@@H](Cc1ccc(O)cc1)C(=O)N[C@@H](CS)C(=O)N[C@@H](Cc1ccc(O)cc1)C(=O)N[C@@H](Cc1ccc(O)cc1)C(=O)N[C@@H](CCCNC(=N)N)C(=O)N[C@@H](Cc1c[nH]cn1)C(=O)N[C@@H](CS)C(=O)N[C@@H](Cc1ccc(O)cc1)C(N)=O [GMAOe1C_WT, reference compound] (H-GACLKNRHSKHYGCYCYYRHCY-NH2; N-terminus assumed) |  |  |  |  | only effective at 6 μM |  |  |  |  | 
